Tests used:
[1] = tested on: NCI-H460 (lung cancer cell line); assay: Cytotoxicity to tumor cells (WST-1), NCI-H460; assay type: cell-based
Procedure: (§1) To verify whether the compounds of this invention could be used as anticancer agents, their cytotoxicity against tumor cells were examined. NCI-H460 (lung cancer cell line, ATCC, USA) and MDA-MB 435S (breast cancer cell line, ATCC, USA) were used. The cancer cell lines were plated in 100 μl of DMEM (Dulbelcco's Modified Eagle Medium) containing 10% FBS (fetal bovine serum) in 96-well plates at 5×10^3 cells/well and cultured for 24 hr at 37° C. under 10% CO2 atmosphere. After change of medium with 100 μl of DMEM containing 5% FBS, cells were treated with the indicated concentration of the compounds in DMSO. The final concentration of DMSO in medium was adjusted to 1%. Following 48-hr treatment, medium was changed with a fresh 5% FBS DMEM and 10 μl/well of premix WST-1 (Takara, Japan) was added for analyzing cell proliferation, followed by 2-hr incubation. Using a ELISA microplate reader, the OD (optical density) values at 450 nm were measured. Compared with no-treatment control, the compounds of this invention were evaluated in terms of their cytotoxicity to cancer cell lines.

[2] = tested on: MDA-MB 435S (breast cancer cell line); assay: Cytotoxicity to tumor cells (WST-1), MDA-MB 435S; assay type: cell-based; conditions: 48-hr treatment
Procedure: as §1

[3] = tested on: Human vascular smooth muscle cells (SMC); assay: Inhibition of vascular smooth muscle cell proliferation (PDGF-stimulated, WST-1); assay type: cell-based; conditions: 5 ng/ml PDGF, 48-hr treatment
Procedure: Human vascular smooth muscle cells (SMC, Bio-whittaker, USA) were plated in 100 μl of DMEM (Dulbelcco's Modified Eagle Medium) containing 10% FBS (fetal bovine serum) in 96-well plates at 5×10^3 cells/well and cultured for 24 hr at 37° C. under 10% CO2 atmosphere. Afterwards, cells were starved in 100 μl of DMEM containing 0.2% FBS for 72 hr. Then, cells were incubated in 100 μl of DMEM containing 5% FBS supplemented with 5 ng/ml PDGF (platelet derived growth factor, ProSpec, Israel) and then treated with indicated concentrations of chemicals in DMSO synthesized in Examples. The final concentration of DMSO was adjusted to 1%. After 48-hr treatment, medium was changed with a fresh 5% FBS DMEM and 10 μl/well of premix WST-1 (Takara, Japan) was added for analyzing cell proliferation, followed by 2-hr incubation. Using a ELISA microplate reader, the OD (optical density) values at 450 nm were measured. Compared with no-treatment control, the compounds of this invention were evaluated in terms of their cell proliferation activity.

[4] = tested on: neointima thickening of balloon-injured left common carotid artery; assay: Inhibition of restenosis using balloon injury of carotid artery; conditions: Sprague-Dawley rats, intraperitoneal, 2 weeks after balloon injury
Procedure: To examine restenosis inhibition effects of the present compounds, rat restenosis models were constructed using balloon injury of carotid artery.
Sprague-Dawley male rats with body weights of 350±30 g (12-14 week age, DaehanBiolink, Inc., Korea) were adapted to surrounding environments for one week. For each experiment, 7-10 rats were used. Rats were anesthetized by intraperitoneal administration of a mixture of ketamine (70 mg/kg) and xylazine hydrochloride (33 mg/kg) and their (left common carotid artery, CCA) and branches of internal carotid artery (ICA) and external carotid artery (ECA) were exposed by neck central compartment dissection. The proximal portion of the left common carotid artery and distal portion of the internal carotid artery were temporarily ligated with suture to block bloodstream, the distal portion of the external carotid artery was ligated. The wall of the external carotid artery between both sutures was partially dissected. 2F Fogarty balloon (Edwards Lifesciences) was inserted and the ligation of the left common carotid artery was then unraveled, followed by advancing the balloon along the direction of the ascending aorta. The balloon was inflated and pulled out at the extent that resistance was allowed at the terminal portion of the common carotid artery of the aortic arch, such that the lesion of the left common carotid artery was induced. […]

cancer cell lines = assay: Cytotoxicity to tumor cells (WST-1), cancer cell lines collectively; assay type: cell-based; conditions: cancer cell lines (NCI-H460, MDA-MB 435S) not distinguished in the sentence; read-out: IC50 against cancer cell lines
Procedure: as §1

[5] = Homo sapiens, NCI-H460, 48-hr treatment

For `CC(=O)c1c(Nc2ccc(F)c(F)c2F)[nH]c2c(Cl)ccc(C)c2c1=O` [BD003], the IC50 ([1]; 48-hr treatment) was 400 nM and the IC50 [2] was 600 nM.

`CCC(=O)c1c(Nc2ccc(F)c(F)c2)[nH]c2c(Cl)ccc([N+](=O)[O-])c2c1=O` [BD034] was tested, and the IC50 ([1]; 48-hr treatment) was 3900 nM, the IC50 [3] was 127 nM and the IC50 [2] was 1600 nM.

In the case of `CCC(=O)c1c(Nc2cccc(Cl)c2Cl)[nH]c2c(Cl)ccc([N+](=O)[O-])c2c1=O` [BD033], the IC50 ([1]; 48-hr treatment) is reported as 3200 nM, the IC50 [3] is reported as 137 nM and the IC50 [2] is reported as 4000 nM.

In the case of `CC(=O)c1c(Nc2ccc(Cl)cc2Cl)[nH]c2c(Cl)ccc([N+](=O)[O-])c2c1=O` [BD010], the IC50 ([1]; 48-hr treatment) is reported as 25000 nM, the IC50 [3] is reported as 6500 nM and the IC50 [2] is reported as 12000 nM.

`CCC(=O)c1c(Nc2ccc(Cl)cc2F)[nH]c2c(Cl)ccc([N+](=O)[O-])c2c1=O` [BD032] showed an IC50 ([1]; 48-hr treatment) of 3300 nM, an IC50 [3] of 140 nM and an IC50 [2] of 3500 nM.

`CC(=O)c1c(Nc2ccc(Br)cc2Cl)[nH]c2c([N+](=O)[O-])cc(Cl)cc2c1=O` [BD002] gave an IC50 ([1]; 48-hr treatment) of 400 nM and an IC50 [2] of 300 nM.

For `O=C(Nc1ccc(Cl)cc1Cl)c1c(Nc2ccccc2)[nH]c2c(Cl)cc(Cl)cc2c1=O` [BD030, 6,8-dichloro-4-oxo-2-phenylamino-1,4-dihydro-quinoline-3-carboxylic acid (2,4-dichloro-phenyl)-amide], the IC50 [1, 5] was 1000 nM, the IC50 ([2]; Homo sapiens, MDA-MB-435S) was 300 nM and the “neointima thickening compared with the non-balloon-injured right common carotid artery” value ([4]; histology (FIG. 1c vs FIG. 1a)) was “slightly increased neointima thickening”. For the same compound, the “reduced neointima thickening compared with the balloon-injured left common carotid artery” value ([4]; dispersed in polyoxyethylated castor oil, histology (FIG. 1c vs FIG. 1b)) was “about 80%” and the IC50 (cancer cell lines) was under 1000 nM.

`CC(=O)c1c(Nc2ccc(F)c(F)c2F)[nH]c2c(F)cc(F)cc2c1=O` [BD004] was tested, and the IC50 ([1]; 48-hr treatment) was 850 nM and the IC50 [2] was 900 nM.

In the case of `CC(=O)c1c(Nc2ccc(Br)cc2)[nH]c2cc(Br)cc(Br)c2c1=O` [BD001], the IC50 ([1]; 48-hr treatment) is reported as 1500 nM, the IC50 [3] is reported as 210 nM and the IC50 [2] is reported as 1800 nM.

`CC(=O)c1c(Nc2cccc(F)c2)[nH]c2c(Cl)ccc(F)c2c1=O` [BD009] gave an IC50 ([1]; 48-hr treatment) of 2600 nM, an IC50 [3] of 625 nM and an IC50 [2] of 5200 nM.

With `O=C(Nc1ccc(Cl)cc1Cl)c1c(Nc2ccc(Cl)cc2Cl)[nH]c2c(Cl)cc(Cl)cc2c1=O` [BD031, 6,8-dichloro-2-(2,4-dichloro-phenylamino)-4-oxo-1,4-dihydro-quinoline-3-carboxylic acid (2,4-dichloro-phenyl)-amide] the IC50 [1, 5] was 210 nM, the IC50 ([2]; Homo sapiens, MDA-MB-435S) was under 160 nM and the IC50 (cancer cell lines) was under 1000 nM.

With `CC(=O)c1c(Nc2ccc(C)cc2)[nH]c2c([N+](=O)[O-])cccc2c1=O` [BD006] the IC50 ([1]; 48-hr treatment) was 1500 nM, the IC50 [3] was 800 nM and the IC50 [2] was 1100 nM.

Compound `CC(=O)c1c(Nc2ccc(F)cc2Cl)[nH]c2c(Cl)ccc(C)c2c1=O` [BD005] has an IC50 ([1]; 48-hr treatment) of 600 nM, an IC50 [3] of 280 nM and an IC50 [2] of 25000 nM.

In the case of `CC(=O)c1c(Nc2cccc(Cl)c2)[nH]c2c(C)cccc2c1=O` [BD008], the IC50 ([1]; 48-hr treatment) is reported as 7200 nM, the IC50 [3] is reported as 1640 nM and the IC50 [2] is reported as 6400 nM.

`CC(=O)c1c(Nc2ccc(F)cc2)[nH]c2c(F)cc(F)cc2c1=O` [BD007] was tested, and the IC50 ([1]; 48-hr treatment) was 1600 nM, the IC50 [3] was 290 nM and the IC50 [2] was 1100 nM.
